# Molecular target: T1, Dimer of Gag-Pol polyprotein [489-587] (Human immunodeficiency virus 1, UniProt P12497)
# T1 construct: 489-587
# Assay: Protease Inhibition Assay
# Procedure: The inhibitory activities of the compounds toward HIV-1 PR were determined by sodium dodecyl sulfate-polyacrylamide gel electrophoresis (SDS-PAGE) assay. The IC50 values of active compounds were determined using the partially purified protease and the synthetic substrate Ac-Ser-Gln-AsnTyr-Pro-Ile-Val-NH2.
row,Structure (SMILES),IC50 [nM]
1,Cc1cccc(C[C@H](NC(=O)c2cccc(O)c2C)[C@H](O)C(=O)N2C[C@@H](Cl)C[C@H]2C(=O)NC(C)(C)C)c1 [(3-Hydroxy-2-methylbenzoyl)-(2(S)-hydroxy-3(S)-amino-4-m-tolylbutanoyl)-4(S)-Cl-Pro-NH-t-Bu],0.6
2,Cc1ccc(C[C@H](NC(=O)c2cccc(O)c2C)[C@H](O)C(=O)N2C[C@@H](Cl)C[C@H]2C(=O)NC(C)(C)C)cc1 [(3-Hydroxy-2-methylbenzoyl)-(2(S)-hydroxy-3(S)-amino-4-p-tolylbutanoyl)-4(S)-Cl-Pro-NH-t-Bu],0.9
3,Cc1c(O)cccc1C(=O)N[C@@H](CCc1ccccc1)[C@H](O)C(=O)N1C[C@@H](Cl)C[C@H]1C(=O)NC(C)(C)C [(3-Hydroxy-2-methylbenzoyl)-(2(S)-hydroxy-3(S)-amino-5-phenylpentanoyl)-4(S)-Cl-Pro-NH-t-Bu],1.4
4,Cc1c(O)cccc1C(=O)N[C@@H](Cc1ccccc1)[C@H](O)C(=O)N1C[C@@H](Cl)C[C@H]1C(=O)NC(C)(C)C [(3-Hydroxy-2-methylbenzoyl)-(2(S)-hydroxy-3(S)-amino-phenylbutanoyl)-4(S)-Cl-Pro-NH-t-Bu],0.9
5,"Cc1c(O)cccc1C(=O)N[C@@H](Cc1cc(F)cc(F)c1)[C@H](O)C(=O)N1C[C@@H](Cl)C[C@H]1C(=O)NC(C)(C)C [(3-Hydroxy-2-methylbenzoyl)-{2(S)-hydroxy-3(S)-amino-4-(3,5-difluoro)-phenylbutanoyl}-4(S)-Cl-Pro-NH-t-Bu]",0.8
6,Cc1c(O)cccc1C(=O)N[C@@H](Cc1cccc(C(F)(F)F)c1)[C@H](O)C(=O)N1C[C@@H](Cl)C[C@H]1C(=O)NC(C)(C)C [(3-Hydroxy-2-methylbenzoyl)-{2(S)-hydroxy-3(S)-amino-4-(3-trifluoromethyl)-phenylbutanoyl}-4(S)-Cl-Pro-NH-t-Bu],0.5
7,COc1ccc(C[C@H](NC(=O)c2cccc(O)c2C)[C@H](O)C(=O)N2C[C@@H](Cl)C[C@H]2C(=O)NC(C)(C)C)cc1 [(3-Hydroxy-2-methylbenzoyl)-{2(S)-hydroxy-3(S)-amino-4-(4-methoxy)-phenylbutanoyl}-4(S) -Cl-Pro-NH-t-Bu],0.9
8,Cc1c(O)cccc1C(=O)N[C@@H](Cc1ccc(-c2ccccc2)cc1)[C@H](O)C(=O)N1C[C@@H](Cl)C[C@H]1C(=O)NC(C)(C)C [(3-Hydroxy-2-methylbenzoyl)-{2(S)-hydroxy-3(S)-amino-4-(4-phenyl)-phenylbutanoyl}-4(S)-Cl-Pro-NH-t-Bu],0.9
9,Cc1c(O)cccc1C(=O)N[C@@H](Cc1cccc2ccccc12)[C@H](O)C(=O)N1C[C@@H](Cl)C[C@H]1C(=O)NC(C)(C)C [(3-Hydroxy-2-methylbenzoyl)-{2(S)-hydroxy-3(S)-amino-4-(alpha-naphtyl)-butanoyl}-4(S)-Cl-Pro-NH-t-Bu],1.5
10,Cc1c(O)cccc1C(=O)N[C@@H](Cc1ccc2ccccc2c1)[C@H](O)C(=O)N1C[C@@H](Cl)C[C@H]1C(=O)NC(C)(C)C [(3-Hydroxy-2-methylbenzoyl)-{2(S)-hydroxy-3(S)-amino-4-(beta-naphtyl)-butanoyl}-4(S)-Cl-Pro-NH-t-Bu],1
11,Cc1c(O)cc(F)cc1C(=O)N[C@@H](Cc1cccc(C(F)(F)F)c1)[C@H](O)C(=O)N1C[C@@H](Cl)C[C@H]1C(=O)NC(C)(C)C [(5-Fluoro-3-hydroxy-2-methylbenzoyl)-{2(S)-hydroxy-3(S)-amino-4-(3-trifluoromethyl)-phenylbutanoyl}-4(S)-Cl-Pro-NH-t-Bu],2.1
12,Cc1c(O)cc(F)cc1C(=O)N[C@@H](Cc1ccc2sccc2c1)[C@H](O)C(=O)N1C[C@@H](Cl)C[C@H]1C(=O)NC(C)(C)C [(5-Fluoro-3-hydroxy-2-methylbenzoyl)-{2(S)-hydroxy-3(S)-amino-4-(benzo[b]thiophene-5-yl)-butanoyl}-4(S)-Cl-Pro-NH-t-Bu],1.9

# From BindingDB's records for doi:10.1016/s0968-0896(99)00127-3 (Sankyo, 1999)
